Data reported in ChEMBL document CHEMBL3779776, “Synthesis and biological evaluation of 2-aroylbenzofurans, rugchalcones A, B and their derivatives as potent anti-inflammatory agents” (Bioorg Med Chem Lett, 2016).

How the values were obtained:
[1] = tested on: RAW264.7; experiment: Antiinflammatory activity in mouse RAW264.7 cells assessed as inhibition of LPS-induced NO production at 10 uM after 18 hrs by Griess assay relative to control; format: functional; settings: RAW264.7, 18 h
[2] = Cytotoxicity against mouse RAW264.7 cells assessed as cell viability at 10 uM after 24 hrs by MTS assay relative to control; format: cell-based; settings: read-out: Activity
[3] = Cytotoxicity against mouse RAW264.7 cells assessed as cell viability at 1 uM after 24 hrs by MTS assay relative to control; format: cell-based; settings: read-out: Activity
[4] = tested on: RAW264.7; experiment: Antiinflammatory activity in mouse RAW264.7 cells assessed as inhibition of LPS-induced NO production after 18 hrs by Griess assay; format: functional, cell-based; settings: RAW264.7, 18 h
[5] = tested on: RAW264.7; experiment: Inhibition of LPS-induced iNOS expression in mouse RAW264.7 cells at 10 uM after 18 hrs by Western blot method relative to LPS; format: functional
[6] = tested on: RAW264.7; experiment: Antiinflammatory activity in mouse RAW264.7 cells assessed as inhibition of LPS-induced NO production at 1 uM after 18 hrs by Griess assay relative to control; format: functional; settings: RAW264.7, 18 h

SMILES	inhibition at 10 µM [1] [%]	viability at 24 h, 10 µM [2] [%]	viability at 24 h, 1 µM [3] [%]	IC50 [4] [µM]	fold change (FC) [5]	inhibition at 1 µM [6] [%]
COc1cc2cc(C(=O)c3ccc(O)cc3)oc2cc1OC	25.8	102	106	10.4	0.46	8.6
O=C(c1ccc(O)cc1)c1cc2cc(O)c(O)cc2o1	74.3	100	106	0.99	0.36	42.9
CNC(=N)NCCC[C@H](N)C(=O)O [TILARGININE]	92.4	97.6	98.6	2.69		20.9
COc1cc2oc(C(=O)c3ccc(O)cc3)cc2cc1O	99.3	93.1	97.9	4.13	0.26	0
COc1ccc(C(=O)c2cc3cc(O)c(O)cc3o2)cc1	96.8	101	95.1	1.9	0.19	19.7
COc1ccc(C(=O)c2cc3cc(OC)c(OC)cc3o2)cc1	29.8	98.6	105	11.8	0.65	9.5
COc1ccc(C(=O)c2cc3cc(O)c(OC)cc3o2)cc1	43	100	98.1	10.8	0.52	16.2
COc1cc2cc(C(=O)c3ccc(O)cc3)oc2cc1O	99.6	95.9	98.1	0.57	0.18	54.2
COc1ccc(C(=O)c2cc3cc(OC)c(O)cc3o2)cc1	29.7	91.8	93.2	13.3	0.77	7.8
